Results reported in PubChem BioAssay AID248 (DTP/NCI, 2004).
Values joined by “and” are separate entries in the source; they are usually repeats but may differ in a detail not shown here. Equal entries are not always repeated. Inconclusive results and toxic doses are left out. No stated cut-off is given here; in the data, active means T/C of 150% or more; inactive means T/C below 125%.

System: L1210 leukemia ip in BDF1 mice, survival T/C
Test: NCI In Vivo Anticancer Drug Screen. Data for tumor model L1210 Leukemia (intraperitoneal) in B6D2F1 (BDF1) mice
Settings: endpoint: mean survival time, higher = longer survival
Summary of the method: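 Value reflects the ratio of survival in compound-treated mice to survival in vehicle-treated controls, with both groups carrying the same transplanted tumor.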

[1] = dose: 100.0 mg/kg/injection, schedule: Q01DX001 (ip), vehicle: Klucel (hydroxypropylcellulose) (HPC)
[2] = dose: 200.0 mg/kg/injection, schedule: Q01DX001 (ip), vehicle: Klucel (hydroxypropylcellulose) (HPC)
[3] = dose: 400.0 mg/kg/injection, schedule: Q01DX001 (ip), vehicle: Klucel (hydroxypropylcellulose) (HPC)
[4] = dose: 100.0 mg/kg/injection, schedule: Q01DX009 (ip), vehicle: saline with Tween-80
[5] = dose: 50.0 mg/kg/injection, schedule: Q01DX001 (ip), vehicle: saline
[6] = dose: 100.0 mg/kg/injection, schedule: Q01DX001 (ip), vehicle: saline
[7] = dose: 200.0 mg/kg/injection, schedule: Q01DX001 (ip), vehicle: saline
[8] = dose: 400.0 mg/kg/injection, schedule: Q01DX001 (ip), vehicle: saline
[9] = dose: 100.0 mg/kg/injection, schedule: Q04DX003 (ip), vehicle: Klucel (hydroxypropylcellulose) (HPC)
[10] = dose: 200.0 mg/kg/injection, schedule: Q04DX003 (ip), vehicle: Klucel (hydroxypropylcellulose) (HPC)
[11] = dose: 400.0 mg/kg/injection, schedule: Q04DX003 (ip), vehicle: Klucel (hydroxypropylcellulose) (HPC)
[12] = dose: 100.0 mg/kg/injection, schedule: Q04DX003 (ip), vehicle: saline with Tween-80
[13] = dose: 200.0 mg/kg/injection, schedule: Q04DX003 (ip), vehicle: saline with Tween-80
[14] = dose: 400.0 mg/kg/injection, schedule: Q04DX003 (ip), vehicle: saline with Tween-80
[15] = dose: 100.0 mg/kg/injection, schedule: Q01DX001 (ip), vehicle: saline with Tween-80
[16] = dose: 200.0 mg/kg/injection, schedule: Q01DX001 (ip), vehicle: saline with Tween-80
[17] = dose: 200.0 mg/kg/injection, schedule: Q01DX009 (ip), vehicle: saline with Tween-80
[18] = dose: 100.0 mg/kg/injection, schedule: Q01DX009 (ip), vehicle: Klucel (hydroxypropylcellulose) (HPC)
[19] = dose: 200.0 mg/kg/injection, schedule: Q01DX009 (ip), vehicle: Klucel (hydroxypropylcellulose) (HPC)
[20] = dose: 400.0 mg/kg/injection, schedule: Q01DX009 (ip), vehicle: Klucel (hydroxypropylcellulose) (HPC)
[21] = dose: 100.0 mg/kg/injection, schedule: Q04DX002 (ip), vehicle: saline
[22] = dose: 25.0 mg/kg/injection, schedule: Q01DX009 (ip), vehicle: Klucel (hydroxypropylcellulose) (HPC)
[23] = dose: 50.0 mg/kg/injection, schedule: Q01DX009 (ip), vehicle: Klucel (hydroxypropylcellulose) (HPC)
[24] = dose: 100.0 mg/kg/injection, schedule: Q01DX009 (ip), vehicle: saline

Measured: T/C

CCCCCc1[nH]c(=O)[nH]c(=O)c1S(=O)(=O)N1CCCCC1
inactive: [1] 107 % of control | [2] 97 % of control | [3] 110 % of control

O=C(c1ccccc1)C1CSS(=O)(=O)C1c1ccccc1 (stereo unspecified)
inactive: [1] 97 % of control | [2] 99 % of control | [3] 92 % of control

C/C(=C\C(=O)O)CBr
inactive: dose: 50.0 mg/kg/injection, schedule: Q01DX009 (ip), vehicle: saline with Tween-80 93 % of control | [4] 86 % of control

O=C(CCCC(=O)N/N=C/c1ccccc1C(=O)O)N/N=C\c1ccccc1C(=O)O
inactive: [5] 104 % of control | [6] 102 % of control | [7] 102 % of control | [8] 98 % of control

CCc1nc(N)nc(-c2ccccc2)c1-c1ccc([N+](=O)[O-])cc1O
inactive: [9] 98 % of control | [10] 95 % of control | [11] 97 % of control

COc1cc(CCCc2ccc(O)c(=O)cc2)cc(OC)c1OC
inactive: [12] 111 % of control | [13] 94 % of control | [14] 94 % of control

CC(C)(C)c1cc(C(C)(C)C)c(O)c(C(C)(C)C)c1
inactive: [15] 91 % of control | [4] 92 % of control | [12] 98 % of control | [16] 95 % of control | [17] 96 % of control | [13] 98 % of control | dose: 400.0 mg/kg/injection, schedule: Q01DX001 (ip), vehicle: saline with Tween-80 87 % of control | dose: 400.0 mg/kg/injection, schedule: Q01DX009 (ip), vehicle: saline with Tween-80 93 % of control | [14] 93 % of control

CCOC(=O)c1cc(OCC)c2c(ccc3cc(OC)ccc32)n1
inactive: [18] 96 % of control | [19] 94 % of control | [20] 93 % of control

Cc1ccc(S(=O)(=O)N=S(CCCl)CCCl)cc1
inactive: [21] 92 % of control | dose: 200.0 mg/kg/injection, schedule: Q04DX002 (ip), vehicle: saline 99 % of control | dose: 400.0 mg/kg/injection, schedule: Q04DX002 (ip), vehicle: saline 101 % of control

CCCCCCCCC(=O)CCC
inactive: [18] 98 % of control | [9] 98 % of control | [19] 98 % of control | [10] 106 % of control | [20] 98 % of control | [11] 91 % of control

CO[C@H]1/C=C/O[C@@]2(C)Oc3c(C)c(O)c4c(O)c(c(/C=N/N5CCNCC5)c(O)c4c3C2=O)NC(=O)/C(C)=C\C=C\[C@H](C)[C@H](O)[C@@H](C)[C@@H](O)[C@@H](C)C(OC(C)=O)[C@@H]1C (stereo partly specified)
inactive: dose: 25.0 mg/kg/injection, schedule: Q01DX001 (ip), vehicle: water 98 % of control | [22] 100 % of control | dose: 50.0 mg/kg/injection, schedule: Q01DX001 (ip), vehicle: water 102 % of control | [23] 94 % of control | dose: 100.0 mg/kg/injection, schedule: Q01DX001 (ip), vehicle: water 101 % of control | [18] 94 % of control | dose: 200.0 mg/kg/injection, schedule: Q01DX001 (ip), vehicle: water 106 % of control | [19] 100 % of control | dose: 400.0 mg/kg/injection, schedule: Q01DX001 (ip), vehicle: water 102 % of control

C=C(Br)CNCCCCCC
inactive: dose: 12.5 mg/kg/injection, schedule: Q01DX009 (ip), vehicle: Klucel (hydroxypropylcellulose) (HPC) 94 % of control | [22] 111 % of control

CC(C)(Cl)Cc1ccccc1
inactive: [4] 88 % of control | [12] 103 % of control | [17] 91 % of control | [13] 105 % of control | [14] 94 % of control

O=C(Nc1ccc2ncccc2c1)Nc1ccc2ncccc2c1
inactive: [23] 90 % of control | dose: 50.0 mg/kg/injection, schedule: Q04DX003 (ip), vehicle: Klucel (hydroxypropylcellulose) (HPC) 89 % of control | [18] 93 % of control | [19] 93 % of control | [10] 86 % of control

CC1(C)CC(=O)C=C(OCCc2ccccc2)C1
inactive: [12] 96 % of control | [13] 94 % of control | [14] 91 % of control

Nc1cc(/C=C/c2ccc(/C=C/c3ccc(S(=O)(=O)F)cc3)cc2)nc(N)n1
inactive: dose: 50.0 mg/kg/injection, schedule: Q01DX001 (ip), vehicle: saline with Tween-80 87 % of control | [15] 92 % of control

CCOC(=O)C(NC(=O)CCl)C(=O)OCC
inactive: [23] 91 % of control | [18] 94 % of control | [9] 100 % of control | [19] 91 % of control | [10] 91 % of control

CCC(C)NC1=CC(=O)c2ccccc2C1=O (stereo unspecified)
inactive: [15] 95 % of control | [16] 94 % of control

CCCCCCCCCCCCCCNCCC(=O)O
inactive: dose: 37.5 mg/kg/injection, schedule: Q04DX003 (ip), vehicle: saline 102 % of control | dose: 75.0 mg/kg/injection, schedule: Q04DX003 (ip), vehicle: saline 101 % of control | dose: 150.0 mg/kg/injection, schedule: Q04DX003 (ip), vehicle: saline 102 % of control

NC1=NC2OC(CO)C(O)C2O1 (stereo unspecified)
inactive: [24] 104 % of control | [9] 100 % of control | dose: 200.0 mg/kg/injection, schedule: Q01DX009 (ip), vehicle: saline 95 % of control | [10] 95 % of control | dose: 400.0 mg/kg/injection, schedule: Q01DX009 (ip), vehicle: saline 101 % of control | [11] 97 % of control

O=[N+]([O-])c1ccc(S(=O)(=O)F)c(Cl)c1
inactive: [6] 98 % of control | [7] 90 % of control | [8] 96 % of control

CC1C(N2CCCCC2)CS1(=O)=O (stereo unspecified)
inactive: [21] 121 % of control

CCC(N)C(=O)O (stereo unspecified)
inactive: [6] 108 % of control | [7] 102 % of control | [8] 94 % of control

O=C(Nc1ccccc1)NC1CCCCC1
inactive: [1] 100 % of control | [2] 95 % of control | [3] 101 % of control

Oc1ccc2ccccc2c1-c1nc2ccccc2s1
inactive: dose: 25.0 mg/kg/injection, schedule: Q04DX003 (ip), vehicle: other 94 % of control and 111 % of control | dose: 50.0 mg/kg/injection, schedule: Q04DX003 (ip), vehicle: other 97 % of control and 88 % of control | dose: 100.0 mg/kg/injection, schedule: Q04DX003 (ip), vehicle: other 91 % of control

CCOC(=O)c1cccc(N(CCO)CCO)c1
inactive: [5] 103 % of control | [6] 97 % of control | [7] 103 % of control | [8] 103 % of control

CC(C)=CCC(=O)OC(Cc1ccccc1)(c1ccccc1)C(C)CN(C)C (stereo unspecified)
inactive: dose: 25.0 mg/kg/injection, schedule: Q01DX009 (ip), vehicle: saline 101 % of control | dose: 50.0 mg/kg/injection, schedule: Q01DX009 (ip), vehicle: saline 98 % of control | [24] 98 % of control
